# Activity calls are given as the source filed them.
# How the values were obtained:
# [1] = molecular target: T1, Cytochrome P450 1A2 (Homo sapiens, UniProt P05177);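 further: PubChem cytochrome P450 panel assay, CYP1A2 panel member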
# T1 sequence (P05177 whole entry): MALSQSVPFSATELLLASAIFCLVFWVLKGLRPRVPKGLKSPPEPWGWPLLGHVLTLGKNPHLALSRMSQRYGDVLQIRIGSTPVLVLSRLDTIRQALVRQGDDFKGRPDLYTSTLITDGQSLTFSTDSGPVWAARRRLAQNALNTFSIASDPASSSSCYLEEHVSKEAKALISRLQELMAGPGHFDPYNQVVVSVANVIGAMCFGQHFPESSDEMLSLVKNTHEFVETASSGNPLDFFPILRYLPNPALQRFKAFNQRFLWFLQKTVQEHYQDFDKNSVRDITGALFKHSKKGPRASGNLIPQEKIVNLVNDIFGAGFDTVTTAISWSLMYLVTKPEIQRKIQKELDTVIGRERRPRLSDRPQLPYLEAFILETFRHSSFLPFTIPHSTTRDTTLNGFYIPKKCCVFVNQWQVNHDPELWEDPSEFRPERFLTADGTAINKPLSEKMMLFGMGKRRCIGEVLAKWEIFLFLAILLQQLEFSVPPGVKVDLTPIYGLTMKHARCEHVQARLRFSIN
# [2] = molecular target: Cytochrome P450 2C9 (Homo sapiens, UniProt P11712)
# [3] = molecular target: T2, Voltage-gated N-type calcium channel alpha-1B subunit/Amyloid beta A4 precursor protein-binding family A member 1 (Homo sapiens, UniProt Q00975+Q02410); assay type: protein assay
# [4] = molecular target: T2, Voltage-gated N-type calcium channel alpha-1B subunit/Amyloid beta A4 precursor protein-binding family A member 1; assay type: protein assay; remark: listed apart in the source
# [5] = cells; assay type: functional
# [6] = molecular target: Cytochrome P450 3A4 (Homo sapiens, UniProt P08684);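 further: CYP3A4 tested as one member of a cytochrome P450 panel screen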
# [7] = molecular target: Cytochrome P450 2C19 (Homo sapiens, UniProt P33261); assay: Cytochrome panel assay with activity outcomes. Panel member name: p450-cyp2c19 Compounds with AC50 equal or less than 10 uM are considered active; assay type: functional; settings: read-out: AC50
# [8] = molecular target: T3, Short transient receptor potential channel 4 (Mus musculus, UniProt Q9QUQ5); assay: mouse TRPC4 channel inhibitors, dose response, cell-based, HEK293 TRPC4/mu-opioid, Fluo-4 calcium (AID 434942); assay type: functional;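 further: potency of inhibitors blocking the TRPC4 calcium response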
# T3 sequence (Q9QUQ5 whole entry): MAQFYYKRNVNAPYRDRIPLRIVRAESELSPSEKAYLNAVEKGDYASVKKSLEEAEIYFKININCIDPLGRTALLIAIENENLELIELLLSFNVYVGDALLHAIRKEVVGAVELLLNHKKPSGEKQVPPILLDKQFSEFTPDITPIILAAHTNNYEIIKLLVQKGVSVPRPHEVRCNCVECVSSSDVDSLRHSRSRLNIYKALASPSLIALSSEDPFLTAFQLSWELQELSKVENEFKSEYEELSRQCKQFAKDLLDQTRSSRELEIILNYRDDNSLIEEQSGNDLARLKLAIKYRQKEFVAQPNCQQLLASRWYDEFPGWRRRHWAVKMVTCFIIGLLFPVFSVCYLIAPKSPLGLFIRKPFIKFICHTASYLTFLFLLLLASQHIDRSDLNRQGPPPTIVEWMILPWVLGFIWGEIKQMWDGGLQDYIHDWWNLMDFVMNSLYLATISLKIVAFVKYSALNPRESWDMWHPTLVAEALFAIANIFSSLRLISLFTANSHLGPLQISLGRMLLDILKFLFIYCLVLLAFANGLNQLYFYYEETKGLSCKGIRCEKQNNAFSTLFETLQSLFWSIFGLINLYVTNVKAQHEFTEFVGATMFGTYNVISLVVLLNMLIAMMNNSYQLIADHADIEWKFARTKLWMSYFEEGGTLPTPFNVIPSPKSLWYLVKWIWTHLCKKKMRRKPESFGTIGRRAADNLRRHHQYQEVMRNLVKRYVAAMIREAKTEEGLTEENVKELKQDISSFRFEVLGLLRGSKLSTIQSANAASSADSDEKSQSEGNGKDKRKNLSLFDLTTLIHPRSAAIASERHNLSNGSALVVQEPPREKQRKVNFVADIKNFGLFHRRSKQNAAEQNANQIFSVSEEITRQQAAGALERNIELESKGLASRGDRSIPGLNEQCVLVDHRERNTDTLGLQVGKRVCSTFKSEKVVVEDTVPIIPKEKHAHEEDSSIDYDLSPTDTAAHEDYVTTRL
# [9] = test system: INS1; assay: beta cell apoptosis inhibitors, cytokine rescue, dose response, luminescence, retest (AID 449756); assay type: functional, cell-based; settings: Rattus norvegicus;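 further: cell death triggered by IL-1 beta plus TNF-alpha plus IFN-gamma mixture; protective hits raise ATP signal compared with cytokine alone wells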
# [10] = cytotoxicity in HEK-293T cells, dose response, cytotoxicity control for TCR NF-kB inhibitor project, luminescence, T-cell screen hits (AID 489026); assay type: functional, cell-based;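 further: cells exposed to compound about 14 hours before the viability readout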
# [11] = Shn3 3'UTR reporter inhibitors, dose response, cell-based, Clone20 osteoblasts, firefly luciferase, cherry-picked (AID 624132); assay type: functional;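 further: firefly luciferase luminescence from reporter carrying the Shn3 3'UTR in osteoblasts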
# [12] = HepG2 cell cytotoxicity, dose response, cytotoxicity control for Shn3 inhibitor project, CellTiter-Glo, cherry-picked (AID 624134); assay type: functional, cell-based
# [13] = control 3'UTR Renilla luciferase suppression, dose response, counter-screen for Shn3 inhibitor project, cell-based, Clone20-Shn3RL, cherry-picked (AID 624133); assay type: functional
# [14] = test system: BJ; assay: cytotoxicity toward BJ-TERT fibroblasts, dose response, cell-based, RAS-independent, luminescence (AID 1933); assay type: functional; settings: Homo sapiens
# [15] = Luminescence Cell-Based Dose Response HTS to Identify Inhibitors of 5'UTR Stem-Loop Driven Prion Protein mRNA Translation in H4 Neuroglioblastoma Cells. [Related pubchem assays: 1827 (Project Summary), 1813 (Primary HTS)]; assay type: functional
# [16] = inhibitors of firefly luciferase expression or activity, dose response, H4 neuroglioma cells, luminescence (AID 1990); assay type: functional, cell-based
# [17] = test system: BJ; assay: cytotoxicity toward BJ-TERT-LT-ST fibroblasts, dose response, cell-based, RAS-independent, luminescence (AID 1935); assay type: functional; settings: Homo sapiens;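 further: BJ fibroblasts immortalized with TERT plus LT and ST oncogenes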
# [18] = cytotoxicity toward DRD oncogenic fibroblasts, dose response, cell-based, non-viral oncogenic, luminescence (AID 1934); assay type: functional; settings: Homo sapiens
# [19] = inhibitors of SNCA 5'UTR-driven reporter translation, confirmation, H4 neuroglioma cells, luminescence (AID 1988); assay type: functional, cell-based
# [20] = test system: BJ; assay: cells; assay type: functional, cell-based; settings: Homo sapiens
# [21] = molecular target: Cytochrome P450 2D6 (Homo sapiens, UniProt P10635);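 further: CYP2D6 member of a cytochrome P450 panel assay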
# [22] = cells; assay type: functional, cell-based
# [23] = test system: Streptococcus; assay: Group A Streptococcus viability loss, dose response, counter-screen for streptokinase expression inhibitor project, luminescence, BacTiterGlo (AID 1915); assay type: functional, organism-based;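 further: potency for reduction of bacterial viability or growth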
# [24] = molecular target: Induced myeloid leukemia cell differentiation protein Mcl-1 (Homo sapiens, UniProt Q07820); assay type: functional
# [25] = cells; assay type: functional, cell-based; remark: listed apart in the source
# [26] = test system: Streptococcus sp. 'group A'; assay: growth inhibition of control SK(-) GAS strain, dose response, counter-screen for streptokinase expression inhibitor project, luminescence, kanamycin, BacTiterGlo, confirmation (AID 1900); assay type: functional, organism-based
# [27] = P. falciparum Dd2 growth inhibitors, dose response, SYBR Green, cherry-picked samples (AID 1159567); assay type: functional, cell-based
# [28] = molecular target: T4, fMet-Leu-Phe receptor (Homo sapiens, UniProt P21462); assay: FPR ligands, dose response (AID 519); assay type: functional
# T4 sequence (P21462 whole entry): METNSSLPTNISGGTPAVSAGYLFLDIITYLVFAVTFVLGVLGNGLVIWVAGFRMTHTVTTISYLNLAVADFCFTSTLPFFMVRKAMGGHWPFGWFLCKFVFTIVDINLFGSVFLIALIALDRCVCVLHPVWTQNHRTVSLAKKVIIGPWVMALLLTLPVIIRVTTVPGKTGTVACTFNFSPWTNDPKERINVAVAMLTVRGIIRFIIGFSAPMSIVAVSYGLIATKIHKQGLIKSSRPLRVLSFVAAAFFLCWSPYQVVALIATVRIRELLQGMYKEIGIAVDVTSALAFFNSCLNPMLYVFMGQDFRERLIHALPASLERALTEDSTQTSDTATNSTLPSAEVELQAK
# [29] = test system: SN12K1; assay: cells; assay type: functional; settings: Homo sapiens
# [30] = test system: P388/ADR; assay: cells; assay type: functional; settings: Mus musculus
# [31] = test system: P388; assay: cells; assay type: functional; settings: Mus musculus
# [32] = molecular target: Large T antigen (Simian virus 40, UniProt P03070); assay type: functional, Betapolyomavirus macacae;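 further: Confirmatory-stage PubChem screen for compounds that inhibit SV40 T antigen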
# T2 sequence (Q00975 whole entry): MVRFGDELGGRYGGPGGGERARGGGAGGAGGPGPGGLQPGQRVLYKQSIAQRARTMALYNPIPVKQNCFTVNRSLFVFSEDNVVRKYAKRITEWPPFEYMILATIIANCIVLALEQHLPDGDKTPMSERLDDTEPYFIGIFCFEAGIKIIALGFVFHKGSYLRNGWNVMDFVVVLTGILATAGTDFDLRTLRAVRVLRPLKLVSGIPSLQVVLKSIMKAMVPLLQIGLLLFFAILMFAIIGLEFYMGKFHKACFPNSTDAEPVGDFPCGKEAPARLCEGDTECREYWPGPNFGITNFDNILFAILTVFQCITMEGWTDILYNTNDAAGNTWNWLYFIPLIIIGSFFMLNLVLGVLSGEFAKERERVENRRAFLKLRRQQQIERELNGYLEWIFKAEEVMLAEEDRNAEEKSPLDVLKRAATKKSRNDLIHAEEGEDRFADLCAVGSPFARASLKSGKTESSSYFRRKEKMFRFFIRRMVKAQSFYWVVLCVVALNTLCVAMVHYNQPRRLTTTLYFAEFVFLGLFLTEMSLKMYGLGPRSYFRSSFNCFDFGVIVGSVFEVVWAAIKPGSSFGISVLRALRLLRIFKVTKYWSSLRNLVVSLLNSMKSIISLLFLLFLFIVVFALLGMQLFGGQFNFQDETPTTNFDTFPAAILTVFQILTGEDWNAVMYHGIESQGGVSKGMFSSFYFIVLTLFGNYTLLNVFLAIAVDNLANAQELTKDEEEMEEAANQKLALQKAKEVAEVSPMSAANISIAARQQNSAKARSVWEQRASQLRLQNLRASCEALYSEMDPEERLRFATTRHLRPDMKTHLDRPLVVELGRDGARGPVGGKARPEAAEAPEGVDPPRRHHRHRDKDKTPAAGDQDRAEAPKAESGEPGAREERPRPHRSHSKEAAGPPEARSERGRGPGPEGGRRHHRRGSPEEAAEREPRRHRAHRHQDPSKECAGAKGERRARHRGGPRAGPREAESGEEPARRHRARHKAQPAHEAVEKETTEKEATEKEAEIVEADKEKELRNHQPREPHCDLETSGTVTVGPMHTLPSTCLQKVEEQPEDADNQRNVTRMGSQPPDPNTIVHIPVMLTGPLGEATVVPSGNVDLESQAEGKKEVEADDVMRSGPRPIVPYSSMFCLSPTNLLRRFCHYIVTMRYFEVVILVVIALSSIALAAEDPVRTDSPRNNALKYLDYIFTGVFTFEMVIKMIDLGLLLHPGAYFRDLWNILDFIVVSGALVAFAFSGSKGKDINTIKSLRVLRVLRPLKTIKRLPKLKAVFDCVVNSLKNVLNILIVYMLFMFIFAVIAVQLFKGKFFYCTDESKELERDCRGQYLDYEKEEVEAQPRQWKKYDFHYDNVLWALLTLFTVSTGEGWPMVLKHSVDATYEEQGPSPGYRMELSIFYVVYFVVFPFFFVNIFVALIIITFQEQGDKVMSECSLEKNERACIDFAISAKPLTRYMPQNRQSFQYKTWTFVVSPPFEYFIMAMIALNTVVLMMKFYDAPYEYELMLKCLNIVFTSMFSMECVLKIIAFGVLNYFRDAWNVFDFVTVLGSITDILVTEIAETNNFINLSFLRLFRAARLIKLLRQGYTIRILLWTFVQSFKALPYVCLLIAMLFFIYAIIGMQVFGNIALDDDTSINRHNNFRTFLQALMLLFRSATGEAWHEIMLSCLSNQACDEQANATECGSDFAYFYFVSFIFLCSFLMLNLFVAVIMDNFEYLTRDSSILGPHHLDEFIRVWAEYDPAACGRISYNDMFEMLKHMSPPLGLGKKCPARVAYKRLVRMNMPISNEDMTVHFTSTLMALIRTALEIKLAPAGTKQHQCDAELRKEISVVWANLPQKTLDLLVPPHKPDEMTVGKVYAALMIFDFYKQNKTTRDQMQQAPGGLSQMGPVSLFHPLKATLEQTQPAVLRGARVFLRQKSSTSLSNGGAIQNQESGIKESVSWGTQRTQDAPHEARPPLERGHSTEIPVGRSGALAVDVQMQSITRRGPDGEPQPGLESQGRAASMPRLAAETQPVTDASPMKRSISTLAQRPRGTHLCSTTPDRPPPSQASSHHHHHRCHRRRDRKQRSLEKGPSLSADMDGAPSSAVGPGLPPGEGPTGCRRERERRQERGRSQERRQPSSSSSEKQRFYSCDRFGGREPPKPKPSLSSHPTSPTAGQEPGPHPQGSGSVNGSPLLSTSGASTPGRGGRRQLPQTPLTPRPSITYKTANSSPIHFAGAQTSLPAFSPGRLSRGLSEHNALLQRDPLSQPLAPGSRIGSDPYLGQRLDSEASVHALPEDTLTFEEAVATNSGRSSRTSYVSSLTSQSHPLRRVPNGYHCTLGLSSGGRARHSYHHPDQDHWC
# T2 sequence (Q02410 whole entry): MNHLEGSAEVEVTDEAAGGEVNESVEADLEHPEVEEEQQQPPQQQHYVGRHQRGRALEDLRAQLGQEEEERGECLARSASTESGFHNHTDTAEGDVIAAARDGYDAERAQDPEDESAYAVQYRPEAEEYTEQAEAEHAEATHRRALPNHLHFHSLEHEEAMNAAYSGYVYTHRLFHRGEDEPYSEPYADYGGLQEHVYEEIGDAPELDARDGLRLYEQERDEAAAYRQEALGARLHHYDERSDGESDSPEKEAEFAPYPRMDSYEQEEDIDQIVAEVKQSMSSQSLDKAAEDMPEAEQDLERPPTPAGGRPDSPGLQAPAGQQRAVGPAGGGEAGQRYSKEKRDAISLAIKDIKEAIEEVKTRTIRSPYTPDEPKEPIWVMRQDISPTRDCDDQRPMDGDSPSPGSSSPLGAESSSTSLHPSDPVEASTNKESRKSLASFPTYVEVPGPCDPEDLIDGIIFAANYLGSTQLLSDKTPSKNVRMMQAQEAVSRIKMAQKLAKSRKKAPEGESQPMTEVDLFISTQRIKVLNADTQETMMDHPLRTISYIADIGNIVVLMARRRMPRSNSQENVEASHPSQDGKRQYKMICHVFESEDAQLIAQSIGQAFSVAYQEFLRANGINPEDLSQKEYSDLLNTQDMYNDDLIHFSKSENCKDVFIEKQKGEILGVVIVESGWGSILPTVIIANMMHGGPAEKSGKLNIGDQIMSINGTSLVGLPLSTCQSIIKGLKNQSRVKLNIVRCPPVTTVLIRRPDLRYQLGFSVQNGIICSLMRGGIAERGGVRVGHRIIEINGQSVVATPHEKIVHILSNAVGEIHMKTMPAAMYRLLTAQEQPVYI
# Cytochrome P450 2C9, sequence (P11712 whole entry): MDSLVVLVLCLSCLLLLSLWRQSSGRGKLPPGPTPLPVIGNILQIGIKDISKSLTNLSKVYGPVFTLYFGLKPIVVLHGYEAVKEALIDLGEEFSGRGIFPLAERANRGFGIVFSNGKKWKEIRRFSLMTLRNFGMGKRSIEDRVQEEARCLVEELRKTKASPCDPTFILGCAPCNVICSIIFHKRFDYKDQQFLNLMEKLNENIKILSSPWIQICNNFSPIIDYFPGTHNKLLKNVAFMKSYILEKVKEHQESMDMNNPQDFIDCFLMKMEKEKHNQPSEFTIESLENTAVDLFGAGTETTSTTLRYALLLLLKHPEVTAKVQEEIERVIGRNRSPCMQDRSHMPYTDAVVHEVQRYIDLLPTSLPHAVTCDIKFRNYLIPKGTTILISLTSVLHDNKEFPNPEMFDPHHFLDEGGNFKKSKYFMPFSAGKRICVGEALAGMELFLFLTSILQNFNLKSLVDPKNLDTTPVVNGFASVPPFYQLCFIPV
# Cytochrome P450 2D6, sequence (P10635 whole entry): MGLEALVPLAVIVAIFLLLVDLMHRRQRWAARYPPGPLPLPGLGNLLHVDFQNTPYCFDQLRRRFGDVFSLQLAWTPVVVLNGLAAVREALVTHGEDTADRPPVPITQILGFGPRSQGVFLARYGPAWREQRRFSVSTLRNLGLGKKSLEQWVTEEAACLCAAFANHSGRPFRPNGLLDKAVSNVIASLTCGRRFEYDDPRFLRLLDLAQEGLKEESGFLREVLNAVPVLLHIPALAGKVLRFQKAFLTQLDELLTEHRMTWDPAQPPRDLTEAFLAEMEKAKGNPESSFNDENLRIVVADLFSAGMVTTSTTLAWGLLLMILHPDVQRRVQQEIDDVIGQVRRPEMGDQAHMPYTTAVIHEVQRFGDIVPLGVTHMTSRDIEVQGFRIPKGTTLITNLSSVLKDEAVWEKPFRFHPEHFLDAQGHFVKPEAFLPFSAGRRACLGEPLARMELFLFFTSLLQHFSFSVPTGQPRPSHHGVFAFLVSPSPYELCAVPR
# Cytochrome P450 2C19, sequence (P33261 whole entry): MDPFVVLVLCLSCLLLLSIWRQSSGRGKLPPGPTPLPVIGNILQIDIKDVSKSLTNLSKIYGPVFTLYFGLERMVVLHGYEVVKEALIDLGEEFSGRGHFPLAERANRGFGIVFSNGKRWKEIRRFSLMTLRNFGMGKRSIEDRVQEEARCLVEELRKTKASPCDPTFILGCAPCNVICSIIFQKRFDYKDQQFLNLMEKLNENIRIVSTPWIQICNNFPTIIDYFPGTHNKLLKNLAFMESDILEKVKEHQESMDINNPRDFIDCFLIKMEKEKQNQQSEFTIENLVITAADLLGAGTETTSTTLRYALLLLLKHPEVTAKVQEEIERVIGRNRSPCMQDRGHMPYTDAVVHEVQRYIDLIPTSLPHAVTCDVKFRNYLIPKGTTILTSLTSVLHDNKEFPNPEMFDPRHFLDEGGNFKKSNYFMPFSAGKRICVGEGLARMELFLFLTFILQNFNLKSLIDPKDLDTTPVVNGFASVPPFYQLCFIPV
# Induced myeloid leukemia cell differentiation protein Mcl-1, sequence (Q07820 whole entry): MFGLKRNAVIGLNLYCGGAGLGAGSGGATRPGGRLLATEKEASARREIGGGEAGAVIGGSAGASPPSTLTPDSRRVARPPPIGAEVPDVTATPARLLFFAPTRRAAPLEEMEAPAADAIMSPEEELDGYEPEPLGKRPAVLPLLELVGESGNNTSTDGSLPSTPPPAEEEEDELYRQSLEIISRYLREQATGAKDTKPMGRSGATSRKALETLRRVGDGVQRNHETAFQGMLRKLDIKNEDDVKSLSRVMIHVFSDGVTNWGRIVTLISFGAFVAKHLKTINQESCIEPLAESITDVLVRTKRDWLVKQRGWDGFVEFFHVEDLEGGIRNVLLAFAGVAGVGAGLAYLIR
smiles,measurement,setting,value
Cc1cc(=O)c2ccccc2[nH]1,AC50,[1],25.1 µM (inconclusive)
same,AC50,[2],inconclusive
Cc1cccc(-n2cnc3c(c2=O)c2nc4ccccc4nc2n3Cc2ccco2)c1,IC50,[3],0.871 µM (active)
same,IC50,[4],2.16 µM (active)
CC(C)c1ccc(OCC(=O)NNC(=O)c2cnccn2)cc1,IC50,[5],11.9 µM (active)
CN(C)c1ncc2ncc(=O)n(CCC#N)c2n1,AC50,[2],inconclusive
O=C(Cc1ccccc1)Nc1ccccc1N1CCOCC1,AC50,[6],6.31 µM (inconclusive)
same,AC50,[1],6.31 µM (inconclusive)
same,AC50,[7],8.91 µM (inconclusive)
same,AC50,[2],inconclusive
CC1CCCC(NC(=O)CCn2c(=O)oc3ccccc32)C1C (stereo unspecified),AC50,[7],4.47 µM (inconclusive)
same,AC50,[2],inconclusive
CC12CN3CC(C)(CN(C1)C3c1ccc(Cl)cc1Cl)C2O (stereo unspecified),EC50,[8],4.22 µM (active)
CCN(CC)S(=O)(=O)c1cc(NC(=O)CNc2cccc(S(=O)(=O)N3CCCC3)c2)ccc1C,AC50,[9],5.23 µM (active)
same,IC50,[10],> 80 µM (inactive)
same,AC50,[11],0.648 µM (active)
same,AC50,[12],1.2 µM (active)
same,AC50,[13],> 70 µM (inactive)
CC(C)COCC1CC2(CC(C)(c3csc(N)n3)OC2=O)C(=O)O1 (stereo unspecified),AC50,[2],inconclusive
N#CC1=C(N)N=C(S)C(C(N)=O)C1c1ccc(Cl)cc1Cl (stereo unspecified),IC50,[3],> 50 µM (inactive)
same,IC50,[4],13.3 µM (active)
CCOc1ccccc1NC(=O)Cn1nnc(C(=O)NCc2ccco2)c1N,EC50,[14],2.66 µM (inconclusive)
same,EC50,[15],0.134 µM (active)
same,EC50,[16],0.216 µM (active)
same,EC50,[17],1.81 µM (inconclusive)
same,IC50,[10],> 80 µM (inactive)
same,EC50,[18],2.65 µM (active)
same,EC50,[19],0.109 µM (active)
same,EC50,[20],3.17 µM (active)
COc1ccc(C)cc1NC1=NC(C)(C)CS1,EC50,[8],7.5 µM (active)
Cc1nn(C)cc1CNC(=O)CCC(=O)O,AC50,[2],inconclusive
Cc1cc(Cl)ccc1OCCCC(=O)N1CCN(C)CC1,AC50,[1],15.8 µM (inconclusive)
same,AC50,[21],14.1 µM (inconclusive)
same,AC50,[2],inconclusive
O=C(N/N=C/c1ccncc1)c1ccc(NC(=O)c2ccc(Cl)cc2)cc1,IC50,[3],> 50 µM (inactive)
same,IC50,[4],> 56.8 µM (not active)
Cc1cc(C(=O)N/N=C/c2cc(N=Nc3ccccc3)ccc2O)[nH]n1,EC50,[15],10.7 µM (active)
same,EC50,[16],13 µM (active)
same,EC50,[22],27.9 µM (active)
same,AC50,[9],1.22 µM (active)
same,IC50,[3],> 50 µM (inactive)
same,EC50,[23],1.92 µM (active)
same,IC50,[24],2.22 µM (active)
same,EC50,[25],11.5 µM (active)
same,EC50,[19],9.08 µM (active)
same,EC50,[26],2.04 µM (active)
same,IC50,[4],10.9 µM (active)
O=C(N/N=C/C=C/c1ccccc1)c1ccncc1,IC50,[5],0.48 µM (active)
COc1ccc(OC)c(/C=N/NC(=O)c2csc3ccccc23)c1,AC50,[21],20 µM (inconclusive)
same,AC50,[2],inconclusive
COc1ccc(C#Cc2cccc(-c3nc(C(=O)N[C@@H]4CCN(Cc5ccccc5)C4)cc4c3[C@H](CCO)N([S+]([O-])C(C)(C)C)C4)c2)cc1OC (stereo partly specified),AC50,[27],4.45 µM (active)
C/C=C/c1ccc2c(c1)[C@@H]1[C@@H](CCN1S(=O)(=O)c1ccccc1C)[C@H](CO)N2,AC50,[27],7.49 µM (active)
C[C@@H]1CN([C@@H](C)CO)S(=O)(=O)c2ccc(C#Cc3ccncc3)cc2O[C@H]1CN(C)S(=O)(=O)c1ccc(F)cc1,AC50,[27],2.95 µM (active)
COCC(=O)N1CC2(C1)CN(Cc1ccccc1F)[C@H](CO)c1[nH]c3cc(OC)ccc3c12,AC50,[27],11.5 µM (active)
CN(C)c1nc(N(C)C)nc(N(C)C)n1 [ALTRETAMINE],Ki,[28],> 66.7 µM (inactive)
same,GI50,[29],> 150 µM (inactive)
same,GI50,[30],> 136 µM (inactive)
same,GI50,[31],> 106 µM (inactive)
Cc1cc(O)c(C=O)c2c1C(=O)Oc1c(CO)c(O)c3c(c1O2)C(O)OC3=O (stereo unspecified) [SLAZINIC ACID],IC50,[32],17.5 µM (active)
same,IC50,[3],12.5 µM (active)
same,IC50,[4],14.8 µM (active)

# Source: ChEMBL document CHEMBL1201862, “PubChem BioAssay data set” (2004)
